Measured values: US9879243B2, “Culture medium for cell growth and transfection” (LIFE TECHNOLOGIES CORPORATION, priority 2001, dated 2018)

Each molecule was assayed on 293 cells (assay: Effect of replacement compounds on the growth of 293 cells in 293 SFM without transferrin, three passages). Settings: 5 μM; third passage.
Format: cell-based, human

Molecule	mean percentage of control growth
Deferoxamine Mesylate•Ferric Chloride	101 percentage of control growth

Same assay, conditions: 10 μM; third passage

Molecule	mean percentage of control growth
Deferoxamine Mesylate•Ferric Chloride	120 percentage of control growth

Same assay, conditions: 20 μM; third passage

Molecule	mean percentage of control growth
Deferoxamine Mesylate•Ferric Chloride	127 percentage of control growth

Same assay, conditions: 25 μM; third passage; control 5 μg/mL human holo-transferrin; iron equimolar where combined

Molecule	mean percentage of control growth
[Cl][Fe]([Cl])[Cl] [Ferric Chloride, reference compound]	87 percentage of control growth
Ferrous Gluconate•Ascorbic Acid Phosphate	86 percentage of control growth
O=S(=O)([O-])[O-].[Fe+2] [Ferrous Sulfate, reference compound]	71 percentage of control growth
Cc1occc(=O)c1O [3-Hydroxy-2-Methyl-4-Pyrone (Maltol), 3-Hydroxy-2-Methyl-4-Pyrone]	0 percentage of control growth
Diethylenetriamine Penta-Acetic Acid•Ferric Chloride	79 percentage of control growth
[Cl][Fe]([Cl])[Cl].c1ccc(Nc2ccccn2)nc1 [2,2-Dipyridylamine•Ferric Chloride]	118 percentage of control growth
O=S(=O)([O-])[O-].[Fe+2].[O-][n+]1cccc(O)c1 [3-Hydroxypyridine-N-Oxide•Ferrous Sulfate]	104 percentage of control growth

Same assay, conditions: 50 μM; third passage; control 5 μg/mL human holo-transferrin

Molecule	mean percentage of control growth
[Cl][Fe]([Cl])[Cl] [Ferric Chloride, reference compound]	91 percentage of control growth
Ferrous Gluconate•Ascorbic Acid Phosphate	109 percentage of control growth
O=S(=O)([O-])[O-].[Fe+2] [Ferrous Sulfate, reference compound]	60 percentage of control growth
Cc1occc(=O)c1O [3-Hydroxy-2-Methyl-4-Pyrone (Maltol), 3-Hydroxy-2-Methyl-4-Pyrone]	28 percentage of control growth
Diethylenetriamine Penta-Acetic Acid•Ferric Chloride	96 percentage of control growth
[Cl][Fe]([Cl])[Cl].c1ccc(Nc2ccccn2)nc1 [2,2-Dipyridylamine•Ferric Chloride]	96 percentage of control growth
O=S(=O)([O-])[O-].[Fe+2].[O-][n+]1cccc(O)c1 [3-Hydroxypyridine-N-Oxide•Ferrous Sulfate]	58 percentage of control growth

Same assay, conditions: 100 μM; third passage; control 5 μg/mL human holo-transferrin

Molecule	mean percentage of control growth
[Cl][Fe]([Cl])[Cl] [Ferric Chloride, reference compound]	109 percentage of control growth
Ferrous Gluconate•Ascorbic Acid Phosphate	101 percentage of control growth
O=S(=O)([O-])[O-].[Fe+2] [Ferrous Sulfate, reference compound]	41 percentage of control growth
Cc1occc(=O)c1O [3-Hydroxy-2-Methyl-4-Pyrone (Maltol), 3-Hydroxy-2-Methyl-4-Pyrone]	81 percentage of control growth
Diethylenetriamine Penta-Acetic Acid•Ferric Chloride	102 percentage of control growth
[Cl][Fe]([Cl])[Cl].c1ccc(Nc2ccccn2)nc1 [2,2-Dipyridylamine•Ferric Chloride]	101 percentage of control growth
O=S(=O)([O-])[O-].[Fe+2].[O-][n+]1cccc(O)c1 [3-Hydroxypyridine-N-Oxide•Ferrous Sulfate]	0 percentage of control growth

These molecules were tested on 293 cells (assay: β-galactosidase expression after transfection (pCMV-SPORT-β-gal, LIPOFECTAMINE 2000) of 293 cells in monolayer culture, 24-well plates). Settings: Table 8, replacement compounds 25 μM in test media, 24 hrs post-transfection.
Format: cell-based, human
Description: When cultured in suspension, cells were split to 3×10^5 viable cells per ml at each passage. On the week of transfection cells were seeded at 3×10^5 viable cells per ml. After ˜48 hrs of growth (day 2) cells were vortexed for 30 seconds and counted and appropriate volumes used for transfection as described in procedures below.
In addition, the base media comprises 2.4 g/L NaHCO3, 2.98 g/L Hepes, 4 mM L-glutamine and 3 ml/L PLURONIC F-68 (Invitrogen Corp., Carlsbad, Calif.).
The osmolarity is adjusted to from about 275-310 mOsm, preferably about 280 mOsm and the pH is adjusted to from about 7.0 to about 7.45 preferably about 7.4 respectively.
Three wells were set up for each treatment. A volume of media corresponding to 3×10^6 viable cells was centrifuged. The supernatant was removed and the cells re-suspended in 600 μl test media. Each well of a 24 well plate received 200 μl of the re-suspended cells.
To prepare the nucleic acid for the transfection experiments, 93 μl test media+3 μl DNA+24 μl LIPOFECTAMINE 2000 were combined in a microfuge tube and complexed for 30 minutes. A 40 μl aliquot of complex was added to each well. 250 μl test media was added to each well five hours after addition of complex. The final cell concentration was 1×10^6 viable cells per well; the final DNA concentration was 1 μg per 1×10^6 viable cells and the final LIPOFECTAMINE 2000 concentration was 8 μl per 1×10^6 viable cells.
24 hrs post-transfection, samples were collected for β-galactosidase quantitation. The contents of duplicate wells were pooled (i.e. ˜2×10^6 cells for the assay) for each sample and transferred to a microfuge tube. The cells were centrifuged, the supernatant was removed and the cells were re-suspended in 1 ml of D-PBS. The cells were pelleted a second time and re-suspended in 1 ml of D-PBS. The samples were then stored at −70° C. Prior to the assay for β-galactosidase, samples were freeze-thawed a total of five times.
293 cells were grown in monolayer culture in the presence of the various replacement compounds indicated and transfection experiments performed as described above. The results are shown in Table 8 and the values are β-galactosidase activity expressed as nanograms of β-galactosidase per 2×10^6 cells. A comparison was made between the transfection efficiency of DNA complexes formed in D-MEM medium and DNA complexes formed in test medium. […]
For cells transfected in 24-well plates, cells densities used were 1×10^6 viable cells per well.

Molecule	β-galactosidase activity; D-MEM used for complexing, Test media to re-suspend cells	β-galactosidase activity; Test Media used for complexing and to re-suspend cells
Deferoxamine Mesylate•Ferric Chloride	154 nanograms of β-galactosidase per 2×10^6 cells	301 nanograms of β-galactosidase per 2×10^6 cells
[Cl][Fe]([Cl])[Cl] [Ferric Chloride, reference compound]	18 nanograms of β-galactosidase per 2×10^6 cells	0 nanograms of β-galactosidase per 2×10^6 cells
Human Transferrin (as control): human transferrin used as control replacement compound in test media	326 nanograms of β-galactosidase per 2×10^6 cells	3279 nanograms of β-galactosidase per 2×10^6 cells
Ferrous Gluconate•Ascorbic Acid Phosphate	116 nanograms of β-galactosidase per 2×10^6 cells	275 nanograms of β-galactosidase per 2×10^6 cells
O=S(=O)([O-])[O-].[Fe+2] [Ferrous Sulfate, reference compound]	258 nanograms of β-galactosidase per 2×10^6 cells	406 nanograms of β-galactosidase per 2×10^6 cells
Cc1occc(=O)c1O [3-Hydroxy-2-Methyl-4-Pyrone (Maltol), 3-Hydroxy-2-Methyl-4-Pyrone]	103 nanograms of β-galactosidase per 2×10^6 cells	52 nanograms of β-galactosidase per 2×10^6 cells
Diethylenetriamine Penta-Acetic Acid•Ferric Chloride	131 nanograms of β-galactosidase per 2×10^6 cells	574 nanograms of β-galactosidase per 2×10^6 cells
[Cl][Fe]([Cl])[Cl].c1ccc(Nc2ccccn2)nc1 [2,2-Dipyridylamine•Ferric Chloride]	347 nanograms of β-galactosidase per 2×10^6 cells	459 nanograms of β-galactosidase per 2×10^6 cells
O=S(=O)([O-])[O-].[Fe+2].[O-][n+]1cccc(O)c1 [3-Hydroxypyridine-N-Oxide•Ferrous Sulfate]	176 nanograms of β-galactosidase per 2×10^6 cells	317 nanograms of β-galactosidase per 2×10^6 cells

Each molecule was assayed on Sp2/0 cells (assay: Effect of replacement compounds on the growth of Sp2/0 cells in CD Hybridoma medium without transferrin, three passages). Settings: 5 μM; third passage.
Format: cell-based

Molecule	mean percentage of control growth
Deferoxamine Mesylate•Ferric Chloride	0 percentage of control growth

Same assay, conditions: 10 μM; third passage

Molecule	mean percentage of control growth
Deferoxamine Mesylate•Ferric Chloride	0 percentage of control growth

Same assay, conditions: 20 μM; third passage

Molecule	mean percentage of control growth
Deferoxamine Mesylate•Ferric Chloride	0 percentage of control growth

Same assay, conditions: 25 μM; third passage; control 5 μg/mL human holo-transferrin

Molecule	mean percentage of control growth
[Cl][Fe]([Cl])[Cl] [Ferric Chloride, reference compound]	55 percentage of control growth
Ferrous Gluconate•Ascorbic Acid Phosphate	92 percentage of control growth
O=S(=O)([O-])[O-].[Fe+2] [Ferrous Sulfate, reference compound]	91 percentage of control growth
Cc1occc(=O)c1O [3-Hydroxy-2-Methyl-4-Pyrone (Maltol), 3-Hydroxy-2-Methyl-4-Pyrone]	0 percentage of control growth

Same assay, conditions: 50 μM; third passage

Molecule	mean percentage of control growth
[Cl][Fe]([Cl])[Cl] [Ferric Chloride, reference compound]	73 percentage of control growth
Ferrous Gluconate•Ascorbic Acid Phosphate	94 percentage of control growth
O=S(=O)([O-])[O-].[Fe+2] [Ferrous Sulfate, reference compound]	103 percentage of control growth
Cc1occc(=O)c1O [3-Hydroxy-2-Methyl-4-Pyrone (Maltol), 3-Hydroxy-2-Methyl-4-Pyrone]	0 percentage of control growth

Same assay, conditions: 100 μM; third passage

Molecule	mean percentage of control growth
[Cl][Fe]([Cl])[Cl] [Ferric Chloride, reference compound]	74 percentage of control growth
Ferrous Gluconate•Ascorbic Acid Phosphate	93 percentage of control growth
O=S(=O)([O-])[O-].[Fe+2] [Ferrous Sulfate, reference compound]	94 percentage of control growth
Cc1occc(=O)c1O [3-Hydroxy-2-Methyl-4-Pyrone (Maltol), 3-Hydroxy-2-Methyl-4-Pyrone]	0 percentage of control growth

These molecules were tested on CHO cells (assay: Effect of replacement compounds on the growth of CHO cells in CD CHO medium without transferrin, three passages). Settings: 5 μM; third passage.
Format: cell-based, Chinese hamster
Description: The ability of replacement compounds to support cellular growth in the absence of transferrin was evaluated using CHO cells maintained in CD CHO medium (Invitrogen Corporation, Carlsbad, Calif., the formulation of which is described in WO 98/08934). Stock cultures containing 5 μg/mL human holo-transferrin were prepared in CD CHO medium. For replacement compound evaluation, CHO cells were established in 125 mL shaker flasks at an initial viable seeding density of 1×10^5 cells/mL in a final volume of 20 mL. All cultures were maintained at 37° C. in humidified air containing 8% CO2. To eliminate transferrin carry-over effects, cells were subcultured at 4 day intervals for a total of three passages. Positive control cultures contained 5 μg/mL human holo-transferrin while negative control cultures were established in the absence of either transferrin or replacement compound. Replacement compound stocks were prepared at 0.1M-0.2M in ddH2O and solubilized when necessary using 5N NaOH or HCl. Iron complexes were established using 0.2M replacement compound and iron stocks mixed 1:1 (v/v) and incubated for 5-10 minutes at 22° C. All solutions containing replacement compounds were filter sterilized using a 0.22 μm Millex-GV filter prior to addition to transferrin and serum-free media.
Except where noted, replacement compounds were evaluated either alone or in combination with ferric chloride or ferrous sulfate at 25 μM, 50 μM and 100 μM. Values in the table represent the mean percentage of control growth for duplicate cultures determined at the third passage.
The ability of various replacement compounds to substitute for transferrin in the culture of CHO cells was determined. When added to the medium formulation un-complexed, the replacement compound is listed alone, when added as a complex with a transition metal, the source of the transition metal is listed with the metal binding compound.

Molecule	mean percentage of control growth
Deferoxamine Mesylate•Ferric Chloride	50 percentage of control growth

Same assay, conditions: 10 μM; third passage

Molecule	mean percentage of control growth
Deferoxamine Mesylate•Ferric Chloride	74 percentage of control growth

Same assay, conditions: 20 μM; third passage

Molecule	mean percentage of control growth
Deferoxamine Mesylate•Ferric Chloride	52 percentage of control growth

Same assay, conditions: 25 μM; third passage; control 5 μg/mL human holo-transferrin

Molecule	mean percentage of control growth
[Cl][Fe]([Cl])[Cl] [Ferric Chloride, reference compound]	56 percentage of control growth
Ferrous Gluconate•Ascorbic Acid Phosphate	91 percentage of control growth
O=S(=O)([O-])[O-].[Fe+2] [Ferrous Sulfate, reference compound]	88 percentage of control growth
[Cl][Fe]([Cl])[Cl].c1ccc(Nc2ccccn2)nc1 [2,2-Dipyridylamine•Ferric Chloride]	40 percentage of control growth

Same assay, conditions: 50 μM; third passage

Molecule	mean percentage of control growth
[Cl][Fe]([Cl])[Cl] [Ferric Chloride, reference compound]	85 percentage of control growth
Ferrous Gluconate•Ascorbic Acid Phosphate	61 percentage of control growth
O=S(=O)([O-])[O-].[Fe+2] [Ferrous Sulfate, reference compound]	79 percentage of control growth
[Cl][Fe]([Cl])[Cl].c1ccc(Nc2ccccn2)nc1 [2,2-Dipyridylamine•Ferric Chloride]	48 percentage of control growth

Same assay, conditions: 100 μM; third passage

Molecule	mean percentage of control growth
[Cl][Fe]([Cl])[Cl] [Ferric Chloride, reference compound]	101 percentage of control growth
Ferrous Gluconate•Ascorbic Acid Phosphate	28 percentage of control growth
O=S(=O)([O-])[O-].[Fe+2] [Ferrous Sulfate, reference compound]	38 percentage of control growth
[Cl][Fe]([Cl])[Cl].c1ccc(Nc2ccccn2)nc1 [2,2-Dipyridylamine•Ferric Chloride]	65 percentage of control growth
